pEC50: −log10 of the molar value.
What follows are molecules tested on TNFα (assay: Cot Monocyte TNFα Cell Based Assay). Details: Homo sapiens, Monocyte, read-out: EC50 TNF, LPS-stimulated human monocytes, TNFα.
Cc1ncccc1[C@H](Nc1cc(Cl)c2ncc(C#N)c(Nc3ccc(Cl)c(Cl)c3F)c2c1)c1cn(C(C)C)nn1 [Example 232, (S)-8-chloro-4-((3,4-dichloro-2-fluorophenyl)amino)-6-(((1-isopropyl-1H-1,2,3-triazol-4-yl)(2-methylpyridin-3-yl)methyl)amino)quinoline-3-carbonitrile] was tested, and the pEC50 was 6.46.
Molecule COc1ccc([C@H](Nc2cc(Cl)c3ncc(C#N)c(Nc4ccc(F)c(Cl)c4)c3c2)c2cn(C3CCN(C(C)(C)C)CC3)nn2)cn1 [Example 290, (S)-6-(((1-(1-(tert-butyl)piperidin-4-yl)-1H-1,2,3-triazol-4-yl)(6-methoxy-pyridin-3-yl)methyl)amino)-8-chloro-4-((3-chloro-4-fluorophenyl)amino)-quinoline-3-carbonitrile] has a pEC50 of 6.73.
In the case of Cc1nc(F)ccc1[C@H](Nc1cc(Cl)c2ncc(C#N)c(NCC(C)(C)C)c2c1)c1cn(CC(C)(F)F)nn1 [Example 749, (S)-8-chloro-6-(((1-(2,2-difluoropropyl)-1H-1,2,3-triazol-4-yl)(6-fluoro-2-methylpyridin-3-yl)methyl)amino)-4-(neopentylamino)quinoline-3-carbonitrile], the pEC50 was 7.18.
Cc1ncccc1[C@H](Nc1cc(Cl)c2ncc(C#N)c(Nc3cccc(Cl)c3)c2c1)c1c[nH]nn1 [Example 224, (S)-8-chloro-4-((3-chlorophenyl)amino)-6-(((2-methylpyridin-3-yl)(1H-1,2,3-triazol-4-yl)methyl)amino)-quinoline-3-carbonitrile] showed a pEC50 of 5.58.
Cc1nc(F)ccc1[C@H](Nc1cc(C#N)c2ncc(C#N)c(NCC(C)(C)C)c2c1)c1cn(C(C)(C)C)nn1 [Example 589, (S)-6-(((1-(tert-butyl)-1H-1,2,3-triazol-4-yl)(6-fluoro-2-methylpyridin-3-yl)methyl)amino)-4-(neopentylamino)quinoline-3,8-dicarbonitrile] was tested, and the pEC50 was 7.47.
Work on Cc1nc(F)ccc1[C@H](Nc1cc(C#N)c2ncc(C#N)c(NCC(C)(C)C)c2c1)c1cn(C2(C(F)(F)F)COC2)nn1 [Example 644, (S)-6-(((6-fluoro-2-methylpyridin-3-yl)(1-(3-(trifluoromethyl)oxetan-3-yl)-1H-1,2,3-triazol-4-yl)methyl)amino)-4-(neopentylamino)quinoline-3,8-dicarbonitrile] yielded a pEC50 of 7.06.
Molecule Cc1nc(Cl)ccc1[C@H](Nc1cc(Cl)c2ncc(C#N)c(NCC(C)(C)C)c2c1)c1cn(C2(C(F)(F)F)CC2)nn1 [Example 794, (S)-8-chloro-6-(((6-chloro-2-methylpyridin-3-yl)(1-(1-(trifluoromethyl)-cyclopropyl)-1H-1,2,3-triazol-4-yl)methyl)amino)-4-(neopentylamino)quinoline-3-carbonitrile] has a pEC50 of 6.89.
CC(C)(C)CNc1c(C#N)cnc2c(C#N)cc(N[C@H](c3cn(C4(CF)CC4)nn3)c3cccc4ncsc34)cc12 [Example 441, (S)-6-((benzo[d]thiazol-7-yl(1-(1-(fluoromethyl)cyclopropyl)-1H-1,2,3-triazol-4-yl)methyl)amino)-4-(neopentylamino)quinoline-3,8-dicarbonitrile] gave a pEC50 of 7.59.
N#Cc1cnc2c(Cl)cc(N[C@@H](c3cccnc3)c3cn(CC(F)(F)F)nn3)cc2c1Nc1cnc(F)c(F)c1 [Example 209, (S)-8-chloro-4-((5,6-difluoropyridin-3-yl)amino)-6-((pyridin-3-yl(1-(2,2,2-trifluoroethyl)-1H-1,2,3-triazol-4-yl)methyl)amino)quinoline-3-carbonitrile] was tested, and the pEC50 was 6.03.
CC[C@@H](Nc1c(C#N)cnc2c(Cl)cc(N[C@@H](c3cccnc3)c3cn(C4CCCC4)nn3)cc12)c1ccccc1 [Example 213, 8-chloro-6-(((S)-(1-cyclopentyl-1H-1,2,3-triazol-4-yl)(pyridin-3-yl)methyl)amino)-4-(((R)-1-phenylpropyl)amino)quinoline-3-carbonitrile] gave a pEC50 of 6.99.
CC[C@@H](Nc1c(C#N)cnc2c(Cl)cc(N[C@@H](c3cccnc3)c3cn(C4COC4)nn3)cc12)c1ccccc1 [Example 194, 8-chloro-6-(((S)-(1-(oxetan-3-yl)-1H-1,2,3-triazol-4-yl)(pyridin-3-yl)methyl)amino)-4-(((R)-1-phenylpropyl)amino)quinoline-3-carbonitrile] gave a pEC50 of 6.95.

Same assay, conditions: Homo sapiens, Monocyte, read-out: EC50 TNF, LPS-stimulated human monocytes, TNFα TR-FRET
With COc1ccc(C(Nc2cc(Cl)c3ncc(C#N)c(NCC(C)(C)C)c3c2)c2nnn(C)c2OC)c(C)n1 (stereo not shown) [Example 970, 8-chloro-6-(((5-methoxy-1-methyl-1H-1,2,3-triazol-4-yl)(6-methoxy-2-methylpyridin-3-yl)methyl)amino)-4-(neopentylamino)quinoline-3-carbonitrile] the pEC50 was 6.14.
With COc1ccc([C@H](Nc2cc(Cl)c3ncc(C#N)c(NCC(C)(C)C)c3c2)c2nnn(C3(C(F)F)CC3)c2OC)c(C)n1 [Example 966, (S)-8-chloro-6-(((1-(1-(difluoromethyl)cyclopropyl)-5-methoxy-1H-1,2,3-triazol-4-yl)(6-methoxy-2-methylpyridin-3-yl)methyl)amino)-4-(neopentylamino)quinoline-3-carbonitrile] the pEC50 was 6.72.
For COc1c(C(Nc2cc(C#N)c3ncc(C#N)c(NCC(C)(C)C)c3c2)c2ccc(F)nc2C)nnn1C (stereo not shown) [Example 908, 6-(((6-fluoro-2-methylpyridin-3-yl)(5-methoxy-1-methyl-1H-1,2,3-triazol-4-yl)methyl)amino)-4-(neopentyl-amino)quinoline-3,8-dicarbonitrile], the pEC50 was 6.62.
Work on CC(C)(C)CNc1c(C#N)cnc2c(Cl)cc(N[C@H](c3nnn(C4(C(F)F)CC4)c3F)c3cccc4ncccc34)cc12 [Example 962, (S)-8-chloro-6-(((1-(1-(difluoromethyl)cyclopropyl)-5-fluoro-1H-1,2,3-triazol-4-yl)(quinolin-5-yl)methyl)amino)-4-(neopentylamino)quinoline-3-carbonitrile] yielded a pEC50 of 6.87.

Same assay, conditions: read-out: EC50 TNF; LPS-stimulated human monocytes, TNFα
CC(C)(C)N1CCC(n2cc([C@@H](Nc3cc(Cl)c4ncc(C#N)c(Nc5cnc(F)c(F)c5)c4c3)c3cccnc3)nn2)CC1 [Example 208] showed a pEC50 of 6.33.
Cc1cncc([C@H](Nc2cc(Cl)c3ncc(C#N)c(Nc4ccc(F)c(Cl)c4)c3c2)c2c[nH]nn2)c1 [Example 249, (S)-8-chloro-4--((3-chloro-4-fluorophenyl)amino)-6-(((5-methylpyridin-3-yl)(1H-1,2,3-triazol-4-yl)methyl)amino)quinoline-3-carbonitrile] gave a pEC50 of 6.48.
CC(C)Oc1ncccc1[C@H](Nc1cc(Cl)c2ncc(C#N)c(Nc3ccc(F)c(Cl)c3)c2c1)c1cn(C2CCN(C(C)(C)C)CC2)nn1 [Example 291, (S)-6-(((1-(1-(tert-butyl)piperidin-4-yl)-1H-1,2,3-triazol-4-yl)(2-isopro-poxypyridin-3-yl)methyl)amino)-8-chloro-4-((3-chloro-4-fluorophenyl)-amino)quinoline-3-carbonitrile] was tested, and the pEC50 was 6.32.
Cn1nccc1[C@H](Nc1cc(Cl)c2ncc(C#N)c(NCC(C)(C)C)c2c1)c1cn(C2(C(F)(F)F)CC2)nn1 [Example 666, (S)-8-chloro-6-(((1-methyl-1H-pyrazol-S-yl)(1-(1-(trifluoromethyl)cyclopropyl)-1H-1,2,3-triazol-4-yl)methyl)amino)-4-(neopentylamino)quinoline-3-carbonitrile] gave a pEC50 of 6.61.
